In brackets after ≈: the same amount, converted by molar mass.

For the data set the following is noted: buffer; pH 7.4; 200.0 µM.
What is called solubility (kinetic) is the concentration staying in solution when a stock, usually in DMSO, is diluted into the medium. The compound `O=C(Nc1cccnc1N1CCOCC1)c1cccs1` came in with a kinetic solubility of more than 43.4 µg/mL. Under `CCCC(=O)Nc1cc(S(=O)(=O)N2CCOCC2)ccc1N1CCCCC1` stands more than 59.3 µg/mL; under `CCc1ccc(NCc2ccc(OC)c(Cn3ccnc3)c2)cc1`, 40.2 µg/mL (≈ 125 µM); under `CC(C)(C)c1csc(NC(=O)c2c(F)c(F)c(F)c(F)c2F)n1`, 21.3 µg/mL (≈ 60.8 µM).

`CSc1ccc(C(=S)N2CCCC2)cc1` showed a kinetic solubility of 29.6 µg/mL (≈ 125 µM). For `Cc1cc(NC(=O)CSc2ncc(C(F)(F)F)cc2Cl)no1`, the solubility (kinetic) turned out to be 1.2 µg/mL (≈ 3.41 µM). The value for `O=C(Nc1nc(-c2ccccc2)ns1)c1ccncc1` was 2.4 µg/mL (≈ 8.5 µM); that for `CCc1noc(C)c1C(=O)Nc1ccccc1C(C)(C)C` was 39 µg/mL (≈ 136 µM); that for `COc1ccc(OCC(=O)Nc2ccc(S(=O)(=O)N(C)c3ccccc3)cc2)cc1` was 1.8 µg/mL (≈ 4.22 µM). `O=C(Cn1cnc([N+](=O)[O-])n1)NC1CC1`: the kinetic solubility is more than 31.7 µg/mL. The compound `CCOP(=O)(OCC)C(O)c1cccc([N+](=O)[O-])c1` (stereo unspecified) yielded a solubility (kinetic) of 39.2 µg/mL (≈ 136 µM).

`Cc1ccc(-c2cnc(-c3ccccc3C(=O)O)o2)cc1` displayed a solubility (kinetic) of 35.2 µg/mL (≈ 126 µM). The value for `CC(NC(=O)COC(=O)c1ccc(S(=O)(=O)N2CCOCC2)cc1)c1ccccc1` (stereo unspecified) was 13.2 µg/mL (≈ 30.5 µM). With `CCN(CC)CCCN=C(C)C1=C(O)c2ccccc2C1=O`, the kinetic solubility is more than 45.1 µg/mL.

For `CC(C#N)Sc1ccc(S(=O)(=O)N2CCCCC2)cn1` (stereo unspecified), the kinetic solubility worked out at 9.4 µg/mL (≈ 30.2 µM). The value for `Cc1cc(C)c2c(n1)sc1c(=O)n(Cc3ccc(F)cc3)cnc12` was less than 0.2 µg/mL. The compound `Cc1cccc(OCc2cc(-c3ccccc3)no2)c1C` registered a solubility (kinetic) of less than 0.6 µg/mL. The value for `CCOc1ccc(N2CC(C(=O)NC3CCCC3)CC2=O)cc1` (stereo unspecified) was more than 47.5 µg/mL; that for `NC(=O)NC(=O)CN1C(=O)NC2(CCOc3ccccc32)C1=O` (stereo unspecified) was more than 47.7 µg/mL; that for `CCN(C(=O)CSc1nc2scc(-c3ccccc3)c2c(=O)n1C)C1CCS(=O)(=O)C1` (stereo unspecified) was 3.1 µg/mL (≈ 6.49 µM). Take `O=[N+]([O-])c1ccc(O)c(CN2CCCCCC2)c1`: the solubility (kinetic) is more than 37.5 µg/mL. Under `C=CCNC(=O)C1CCC(C(=O)NCC=C)CC1` (stereo unspecified) stands more than 37.6 µg/mL; under `CC(=O)c1ccc(NC(=O)C2CC(=O)N(C(C)C)C2)cc1` (stereo unspecified), more than 43.3 µg/mL.

Compound `O=C(Nc1ccc2ccccc2c1)c1ccc2[nH]c(=O)c(=O)[nH]c2c1` gave a kinetic solubility of 4.3 µg/mL (≈ 13 µM). The value for `CC(C)CCNC(=O)Cc1csc(-c2ccccc2)n1` was 41.4 µg/mL (≈ 144 µM); that for `Oc1ccc(-c2csc(Nc3ncccn3)n2)cc1` was 1 µg/mL (≈ 3.7 µM); that for `O=C(COC(=O)c1cccc(F)c1)NCCC1=CCCCC1` was 9.5 µg/mL (≈ 31.1 µM). Under `Cc1ccc(NC(=O)c2ccc3nsnc3c2)c(C)c1` stands 1.5 µg/mL (≈ 5.29 µM). In turn, `Cc1ccc(S(=O)(=O)NCCc2c[nH]c3ccccc23)cc1` gave a kinetic solubility of 37.7 µg/mL (≈ 120 µM). Compound `O=C(Nc1ccc(N2CCCC2)cc1)c1cccc(Cl)c1Cl` registered a solubility (kinetic) of less than 0.4 µg/mL. Under `CN1CCC(NC(=S)Nc2cccc([N+](=O)[O-])c2)CC1` stands more than 44.2 µg/mL. The value for `Cc1nc2ccc(NS(=O)(=O)c3cccc([N+](=O)[O-])c3)cc2s1` was more than 52.4 µg/mL.

For `CCCCCN1C(C)=CC(=C(C#N)C#N)C=C1C`, the kinetic solubility is 3.3 µg/mL (≈ 13.7 µM). The compound `COC(=O)c1cccc2c1NC(=O)C2=O` came in with a solubility (kinetic) of more than 30.8 µg/mL. Under `CC1CC(C)CN(C(=O)Cn2cc(C=O)c3ccccc32)C1` (stereo unspecified) stands more than 44.8 µg/mL; under `Cc1csc(NC(=O)CCNC(=O)c2ccccc2Cl)n1`, 43.9 µg/mL (≈ 136 µM).

The compound `COc1ccc(CN2C(=O)COc3ccccc32)cc1` gave a kinetic solubility of 34.1 µg/mL (≈ 127 µM).

`O=C(CNC(=O)Cc1cccc2ccccc12)NCc1ccccc1F` came in with a kinetic solubility of 36.5 µg/mL (≈ 104 µM). `COc1ccc2c([N+](=O)[O-])c(Cl)[nH]c2c1` displayed a solubility (kinetic) of 32.3 µg/mL (≈ 143 µM). The value for `CC(=O)Nc1c(C(N)=O)oc2ccc(Cl)cc12` was more than 37.9 µg/mL; that for `CCCn1c(=O)c(C(=O)Nc2cc(C)ccn2)c(O)c2ccccc21` was less than 0.2 µg/mL; that for `O=C(Nc1ccc([N+](=O)[O-])cc1)c1cc(Cl)sc1Cl` was less than 0.3 µg/mL. The value for `CCn1c(SCC(=O)NC2CCCC2)nnc1-c1cccnc1` was more than 49.7 µg/mL.

The compound `COc1ccc(CCC(C)N2CCOCC2)cc1` (stereo unspecified) came in with a solubility (kinetic) of 31.9 µg/mL (≈ 128 µM). Under `O=C(CNC(=O)c1cccs1)NCCc1ccco1` stands more than 41.7 µg/mL; under `CC(c1ccccc1)N1CCc2[nH]c(=S)[nH]c(=O)c2C1` (stereo unspecified), 19.9 µg/mL (≈ 69.2 µM); under `Cn1cccc1/C=N/NC(=O)CSc1nc2ccccc2[nH]1`, more than 47 µg/mL. Consider `O=C(c1cccs1)N1CCN=C1SCc1ccc(F)cc1`, for which the solubility (kinetic) was less than 0.3 µg/mL. The value for `O=C(Nc1cccc(S(=O)(=O)N2CCCCC2)c1)C1CCCC1` was 41.2 µg/mL (≈ 122 µM); that for `CCc1ccccc1NC(=O)c1cc(-c2ccco2)on1` was 3.1 µg/mL (≈ 11 µM); that for `CN(Cc1cccc(F)c1)C(=O)c1ccc(S(=O)(=O)N2CCCCCC2)cc1` was 25.4 µg/mL (≈ 62.8 µM).

The record behind these values is PubChem BioAssay AID1996.
